According to US8586555B2, “Immunomodulatory compositions, formulations, and methods for use thereof” (Dynavax Technologies Corporation, priority 2001, dated 2013):

Key:
[1] = system: human peripheral blood mononuclear cells (hPBMC); experiment: human PBMC assay, Example 7 (oligo 20 μg/ml, cPLGA 100 μg/ml); type: cell-based; details: for immunomodulatory activity: combined with cPLGA; for IFN-α Mean / IFN-γ Mean: mean of donors 28115-28118
Description: (§1) Hexameric oligonucleotides were tested for immunomodulatory activity alone and complexed with lactic acid/glycolic acid copolymer microcarrier beads using a human peripheral blood mononuclear cells (hPBMC) assay. Peripheral blood was collected from healthy volunteers by venipuncture using heparinized syringes. Blood was layered onto a FICOLL® (Amersham Pharmacia Biotech) cushion and centrifuged. hPBMCs, located at the FICOLL® interface, were collected, then washed twice with cold phosphate buffered saline (PBS). The cells were resuspended and cultured in 48 well plates at 2×10^6 cells/mL at 37° C. in RPMI 1640 with 10% heat-inactivated human AB serum plus 50 units/mL penicillin, 50 μg/mL streptomycin, 300 μg/mL glutamine, 1 mM sodium pyruvate, and 1×MEM non-essential amino acids (NEAA).
(§2) Oligonucleotides were tested as single agents, or in combination with PLGA microspheres (unmodified or cationic). All oligonucleotides contained 100% phosphorothioate linkages and were tested at 20 μg/ml. The PLGA microcarriers were used at 250 μg/ml. When oligos were tested with PLGA microcarriers, the oligo and the microcarriers were added at the same time to the culture. The cells were cultured in the in the presence of test samples for 24 hours, then cell-free medium was collected from each well and assayed for IFN-γ and IFN-α concentration. Two different oligonucleotides were used as controls: a first oligonucleotide known to have immunostimulatory activity (a 22mer oligonucleotide containing an ISS (“ISS+,” 5′-[…]-3′(SEQ ID NO:2)) and a second oligonucleotide of similar sequence but lacking immunostimulatory activity (“ISS−,” 5′-[…]-3′ (SEQ ID NO:1)). SAC (PANSORBIN® CalBiochem, 1/5000 dilution) and a untreated culture were used as additional positive and negative controls, respectively. SAC contains Staph. aureus (Cowan I) cell material. All samples were assayed in duplicate.
(§3) IFN-γ and IFN-α were assayed using CYTOSCREEN™ ELISA kits from BioSource International, Inc., according to the manufacturer's instructions.
(§4) The immunomodulatory activity of the oligonucleotides used in Examples 3 and 4 was confirmed with the human PBMC assay using PBMCs from an additional four donors (donors 28051-28054). Oligonucleotides were tested alone or in combination with cationic PLGA as described in Example 3, except that 96 well plates were used instead of 48 well plates and the oligonucleotides were premixed with the cationic microspheres at room temperature for 15 minutes before they were added to the culture, rather than being added simultaneously to the culture.
Additional oligonucleotides, some incorporating modified bases, were tested for immunomodulatory activity in the human PBMC assay. Oligonucleotides were tested alone or in combination with cPLGA as described in Example 5. The oligonucleotides were premixed with the cationic PLGA microspheres for 15 minutes at room temperature at concentrations of 20 μg/ml and 100 μg/ml, respectively.

[2] = system: human peripheral blood mononuclear cells (hPBMC); experiment: human PBMC assay, Example 6; type: cell-based
Description: as §1, §2, §3, §4
Additional oligonucleotides were tested for immunomodulatory activity in the human PBMC assay. Oligonucleotides were tested alone or in combination with cPLGA as described in Example 5.
Additional oligonucleotides were tested using hPBMCs from volunteers 154-157 using the same assay. Results, which are shown in Table 7, confirm the activity of oligonucleotides fitting the formula 5′-X1TCGX2-3′, where the oligonucleotide is a 3-6mer, X1 is zero or one nucleotide and X2 is zero to three nucleotides.

[3] = delivered as oligonucleotide/MC complex (cPLGA)

Row | Substance | immunomodulatory activity [2, 3] | IFN-α ([2]; donor 28075) | IFN-γ ([2]; donor 28075) | IFN-α ([2]; donor 28076) | IFN-γ ([2]; donor 28076) | IFN-α ([2]; donor 28077) | IFN-γ ([2]; donor 28077) | IFN-α ([2]; donor 28078) | IFN-γ ([2]; donor 28078) | IFN-α Mean ([2]; mean of donors 28075-28078) | IFN-γ Mean ([2]; mean of donors 28075-28078) | IFN-α Mean ([2]; mean of volunteers 154-157) | IFN-γ Mean ([2]; mean of volunteers 154-157) | IFN-α ([2]; volunteer 154) | IFN-γ ([2]; volunteer 154) | IFN-α ([2]; volunteer 155) | IFN-γ ([2]; volunteer 155) | IFN-α ([2]; volunteer 156) | IFN-γ ([2]; volunteer 156) | IFN-α ([2]; volunteer 157) | further results
1 | 5′-AATCGT-3′ [Oligonucleotide 6-25] |  |  |  |  |  |  |  |  |  |  |  |  |  |  |  |  |  |  |  |  | immunomodulatory activity [1]: active; IFN-α ([1]; donor 28115): 7 pg/mL; IFN-γ ([1]; donor 28115): 2 pg/mL; IFN-α ([1]; donor 28116): 0 pg/mL; IFN-γ ([1]; donor 28116): 15 pg/mL; IFN-α ([1]; donor 28117): 0 pg/mL; IFN-γ ([1]; donor 28117): 11 pg/mL; IFN-α ([1]; donor 28118): 0 pg/mL; IFN-γ ([1]; donor 28118): 0 pg/mL; IFN-α Mean [1]: 2 pg/mL; IFN-γ Mean [1]: 7 pg/mL
2 | 5′-ACGTTT-3′ [Oligonucleotide 6-13] | inactive | 10 pg/mL | 8 pg/mL | 39 pg/mL | 225 pg/mL | 28 pg/mL | 18 pg/mL | 34 pg/mL | 15 pg/mL | 28 pg/mL | 67 pg/mL |  |  |  |  |  |  |  |  |  | immunomodulatory activity ([2]; delivered alone): inactive
3 | 5′-CCGTTT-3′ [Oligonucleotide 6-14] | inactive | 15 pg/mL | 11 pg/mL | 51 pg/mL | 12 pg/mL | 9 pg/mL | 14 pg/mL | 230 pg/mL | 11 pg/mL | 76 pg/mL | 12 pg/mL |  |  |  |  |  |  |  |  |  | immunomodulatory activity ([2]; delivered alone): inactive
4 | 5′-CGATCG-3′ [Oligonucleotide 6-11] |  |  |  |  |  |  |  |  |  |  |  | 0 pg/mL | 3 pg/mL | 0 pg/mL | 0 pg/mL | 0 pg/mL | 0 pg/mL | 0 pg/mL | 10 pg/mL | 0 pg/mL | IFN-γ ([2]; volunteer 157): 0 pg/mL
5 | 5′-GACGTT-3′ [Oligonucleotide 6-17, reference compound] | largely inactive |  |  |  |  |  |  |  |  |  |  | 0 pg/mL | 4 pg/mL | 0 pg/mL | 0 pg/mL | 0 pg/mL | 0 pg/mL | 0 pg/mL | 16 pg/mL | 0 pg/mL | IFN-γ ([2]; volunteer 157): 0 pg/mL
6 | 5′-GCGTTT-3′ [Oligonucleotide 6-15] | inactive | 36 pg/mL | 11 pg/mL | 9 pg/mL | 12 pg/mL | 35 pg/mL | 15 pg/mL | 36 pg/mL | 11 pg/mL | 29 pg/mL | 13 pg/mL |  |  |  |  |  |  |  |  |  | immunomodulatory activity ([2]; delivered alone): inactive
7 | 5′-TCCGGA-3′ [Oligonucleotide 6-18, reference compound] | largely inactive |  |  |  |  |  |  |  |  |  |  | 0 pg/mL | 4 pg/mL | 0 pg/mL | 0 pg/mL | 0 pg/mL | 0 pg/mL | 0 pg/mL | 15 pg/mL | 0 pg/mL | IFN-γ ([2]; volunteer 157): 0 pg/mL
8 | 5′-TCCTTT-3′ [Oligonucleotide 6-20, reference compound] |  |  |  |  |  |  |  |  |  |  |  | 0 pg/mL | 3 pg/mL | 0 pg/mL | 0 pg/mL | 0 pg/mL | 0 pg/mL | 0 pg/mL | 13 pg/mL | 0 pg/mL | IFN-α ([1]; donor 28115): 0 pg/mL; IFN-γ ([1]; donor 28115): 6 pg/mL; IFN-α ([1]; donor 28116): 0 pg/mL; IFN-γ ([1]; donor 28116): 3 pg/mL; IFN-α ([1]; donor 28117): 0 pg/mL; IFN-γ ([1]; donor 28117): 9 pg/mL; IFN-α ([1]; donor 28118): 0 pg/mL; IFN-γ ([1]; donor 28118): 0 pg/mL; IFN-α Mean [1]: 0 pg/mL; IFN-γ Mean [1]: 5 pg/mL; IFN-γ ([2]; volunteer 157): 0 pg/mL
9 | 5′-TCG-3′ [Oligonucleotide 3-1] | active in two out of four donors | 0 pg/mL | 7 pg/mL | 0 pg/mL | 11 pg/mL | 4 pg/mL | 12 pg/mL | 11 pg/mL | 15 pg/mL | 4 pg/mL | 11 pg/mL |  |  |  |  |  |  |  |  |  | 
10 | 5′-TCGCGA-3′ [Oligonucleotide 6-10] |  |  |  |  |  |  |  |  |  |  |  | 0 pg/mL | 4 pg/mL | 0 pg/mL | 0 pg/mL | 0 pg/mL | 0 pg/mL | 0 pg/mL | 15 pg/mL | 0 pg/mL | IFN-γ ([2]; volunteer 157): 0 pg/mL
11 | 5′-TCGT-3′ [Oligonucleotide 4-1] | active in two out of four donors | 0 pg/mL | 9 pg/mL | 3 pg/mL | 12 pg/mL | 0 pg/mL | 14 pg/mL | 10 pg/mL | 14 pg/mL | 3 pg/mL | 12 pg/mL |  |  |  |  |  |  |  |  |  | 
12 | 5′-TCGTCG-3′ [Oligonucleotide 6-12] | highly active | 5 pg/mL | 8 pg/mL | 3 pg/mL | 13 pg/mL | 187 pg/mL | 13 pg/mL | 181 pg/mL | 18 pg/mL | 94 pg/mL | 13 pg/mL |  |  |  |  |  |  |  |  |  | 
13 | 5′-TTCGT-3′ [Oligonucleotide 5-3] |  |  |  |  |  |  |  |  |  |  |  |  |  |  |  |  |  |  |  |  | immunomodulatory activity [1]: active in two of four donors; IFN-α ([1]; donor 28115): 10 pg/mL; IFN-γ ([1]; donor 28115): 26 pg/mL; IFN-α ([1]; donor 28116): 0 pg/mL; IFN-γ ([1]; donor 28116): 4 pg/mL; IFN-α ([1]; donor 28117): 0 pg/mL; IFN-γ ([1]; donor 28117): 17 pg/mL; IFN-α ([1]; donor 28118): 0 pg/mL; IFN-γ ([1]; donor 28118): 0 pg/mL; IFN-α Mean [1]: 3 pg/mL; IFN-γ Mean [1]: 12 pg/mL
14 | 5′-TTTTCG-3′ [Oligonucleotide 6-5] |  |  |  |  |  |  |  |  |  |  |  | 0 pg/mL | 3 pg/mL | 0 pg/mL | 0 pg/mL | 0 pg/mL | 0 pg/mL | 0 pg/mL | 11 pg/mL | 0 pg/mL | IFN-γ ([2]; volunteer 157): 0 pg/mL
15 | 5′-UCGTTT-3′ [Oligonucleotide 6-21] |  |  |  |  |  |  |  |  |  |  |  |  |  |  |  |  |  |  |  |  | immunomodulatory activity [1]: active; IFN-α ([1]; donor 28115): 0 pg/mL; IFN-γ ([1]; donor 28115): 27 pg/mL; IFN-α ([1]; donor 28116): 0 pg/mL; IFN-γ ([1]; donor 28116): 0 pg/mL; IFN-α ([1]; donor 28117): 0 pg/mL; IFN-γ ([1]; donor 28117): 7 pg/mL; IFN-α ([1]; donor 28118): 0 pg/mL; IFN-γ ([1]; donor 28118): 0 pg/mL; IFN-α Mean [1]: 0 pg/mL; IFN-γ Mean [1]: 8 pg/mL
